Laboratory results: patent US20240199605A1, “SMALL MOLECULAR INHIBITORS OF NF-kB INDUCING KINASE” (Janssen Pharmaceutica NV, priority 2019, published 2024)

Legend:
[1] = biological target: recombinant human NF-kappaB-inducing kinase (NIK/MAP3K14) (Homo sapiens (Human), UniProt Q99558); assay: Inhibition of auto-phosphorylation of recombinant human NIK/MAP3K14 (AlphaScreen); type: biochemical; details: NIK auto-phosphorylation, 5 μM ATP, 1 nM NIK, 2 h at 25° C.; average of values
Procedure: Inhibition of auto-phosphorylation of recombinant human NF-kappaB-inducing kinase (NIK/MAP3K14) activity (AlphaScreen®)
NIK/MAP3K14 auto-phosphorylation activity was measured using the AlphaScreen® (αscreen) format (Perkin Elmer). All compounds tested were dissolved in dimethyl sulfoxide (DMSO) and further dilutions were made in assay buffer. The final DMSO concentration was 0.7% (v/v) in assays. The assay buffer was 50 mM Tris pH 7.5 containing 1 mM EGTA (ethylene glycol tetraacetic acid), 1 mM DTT (dithiothreitol), 0.1 mM Na3VO4, 5 mM MgCl2, and 0.01% Tween® 20. The assays were carried out in 384 well Proxiplates (Perkin Elmer). The incubations consisted of the compound, 5 μM Adenosine-5′-triphosphate (ATP), and 1 nM NIK/MAP3K14. Incubations were initiated by the addition of GST-tagged NIK/MAP3K14 enzyme, carried out for 2 h at 25° C. and terminated by addition of stop buffer containing anti-phospho-IKK Ser176/180 antibody. Protein A Acceptor and Glutathione-Donor beads were added before reading using an EnVision® Multilabel Plate Reader (Perkin Elmer). […] IC50's were determined by fitting a sigmoidal curve to % inhibition of control versus Log10 compound concentration.

[2] = system: p-IKKα levels in L363 (NIK translocated multiple myeloma) cells; assay: Effect of compounds on p-IKKα levels in L363 cells (AlphaLISA SureFire Ultra); type: cell-based, human; details: Homo sapiens, L-363, 6 h, BAFF stimulated, MG132, 6 h, average of values, read-out: Assay 2 IC50
Procedure: Effect of Compounds on p-IKKα Levels in L363 (NIK Translocated Multiple Myeloma) Cells
All compounds tested were dissolved and serially diluted in DMSO, 1:3 dilution for 11 points in an Echo compatible plate. 100% DMSO was added to columns 12 and 24 of the plate to serve as high and low signal controls. This compound plate was used to spot 20 nL of compound or DMSO into a Greiner 384 well TC plate (781080). The final DMSO concentration was 0.3% (v/v) in cell assays. Human L363 cells (ATCC) were cultured in RPM11640 medium supplemented with GlutaMax, non-essential amino acids, sodium pyruvate and 10% fetal bovine serum. Cells were routinely maintained at densities of […] at 37° C. in a humidified 5% CO2 atmosphere incubator. Cells were passaged twice a week splitting back to obtain the low density. The day before the assay, cells were washed twice in HBSS (Hank's Balanced Salt Solution), resuspended in Dulbecco's Modified Eagle Medium (DMEM)+0.5% IgG and protease free BSA (Jackson Immuno Research Laboratories), +/−250 ng/ml recombinant human B-cell activating factor (BAFF/BLyS/TNFSF13B) and incubated overnight at 37° C. in a humidified 5% CO2 atmosphere (bulk stimulation with or without BAFF). The next day, the cell concentration was adjusted to 1×10^7 cells/ml in DMEM+/−250 ng/ml BAFF+/−10 μM MG132 and plated at 10 μl/well into compound or DMSO spotted 384 well TC plates. Seeded cells were incubated at 37° C. in a humidified 5% CO2 atmosphere for 6 h. After 6 h, the plates were removed from the incubator and cell lysis was achieved by the addition of 2.5 μl 5× lysis buffer containing protease and phosphatase inhibitors, followed by shaking on a plate shaker at room temperature for 15 min. At the end of this incubation, lysed cells were sequentially treated and incubated with acceptor and donor bead mixes according to the manufacturer's protocol for a 1 plate/2-incubation suspension cell assay (AlphaLISA SureFire Ultra p-IKKa (Ser 176/180) Assay Kit (Perkin Elmer). Plates were read using an EnVision® Multilabel Plate Reader (Perkin Elmer). Within an experiment, a concentration response curve for each compound was run in duplicate. The signal obtained in the test wells was normalized using high signal (BAFF stimulated cells, DMSO, MG132) and low signal (unstimulated cells, DMSO) controls. To determine the IC50, a sigmoidal curve was fitted to the plot of % inhibition versus Log10 compound concentration.

Chain of recombinant human NF-kappaB-inducing kinase (NIK/MAP3K14) (Q99558 whole entry): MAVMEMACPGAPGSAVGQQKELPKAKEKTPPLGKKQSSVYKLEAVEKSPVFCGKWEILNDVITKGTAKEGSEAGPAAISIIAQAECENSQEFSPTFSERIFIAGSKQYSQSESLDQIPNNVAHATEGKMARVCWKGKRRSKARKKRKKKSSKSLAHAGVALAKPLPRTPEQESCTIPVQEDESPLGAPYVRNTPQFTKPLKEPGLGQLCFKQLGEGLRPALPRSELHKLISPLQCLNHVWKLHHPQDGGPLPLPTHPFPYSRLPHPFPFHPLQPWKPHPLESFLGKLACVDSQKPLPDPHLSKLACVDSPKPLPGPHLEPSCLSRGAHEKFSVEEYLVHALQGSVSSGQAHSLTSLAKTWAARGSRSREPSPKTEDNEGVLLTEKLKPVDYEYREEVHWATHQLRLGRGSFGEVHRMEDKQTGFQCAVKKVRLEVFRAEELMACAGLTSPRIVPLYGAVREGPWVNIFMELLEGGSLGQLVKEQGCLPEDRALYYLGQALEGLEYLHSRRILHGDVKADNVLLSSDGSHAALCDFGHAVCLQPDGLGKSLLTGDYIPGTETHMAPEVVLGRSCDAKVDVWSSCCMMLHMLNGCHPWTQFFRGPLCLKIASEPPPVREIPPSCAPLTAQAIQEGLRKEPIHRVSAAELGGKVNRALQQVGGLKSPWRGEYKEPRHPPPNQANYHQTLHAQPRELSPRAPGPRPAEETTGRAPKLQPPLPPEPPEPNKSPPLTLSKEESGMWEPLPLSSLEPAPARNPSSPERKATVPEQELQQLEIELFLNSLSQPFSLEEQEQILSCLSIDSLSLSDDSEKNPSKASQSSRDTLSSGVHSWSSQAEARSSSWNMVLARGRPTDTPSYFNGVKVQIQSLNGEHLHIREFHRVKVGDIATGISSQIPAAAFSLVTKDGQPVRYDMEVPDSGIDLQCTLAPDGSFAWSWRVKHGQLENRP

SMILES	IC50 [1] [nM]	IC50 [2] [nM]
CN1CC[C@@](O)(C#Cc2cccc(-c3ncc4c(-c5cnn(C)c5)cnc(N)c4n3)c2)C1=O [Example 122, (R)-3-[2-[3-[8-Amino-5-(1-methylpyrazol-4-yl)pyrido[3,4-d]pyrimidin-2-yl]phenyl]ethynyl]-3-hydroxy-1-methyl-pyrrolidin-2-one]	≤ 0.5	2.3
CN1CC[C@@](O)(C#Cc2cccc(-c3ncc4c(C(=O)Oc5ccccc5)cnc(N)c4n3)c2)C1=O [Example 128, (R)-Phenyl 8-amino-2-[3-[2-(3-hydroxy-1-methyl-2-oxo-pyrrolidin-3-yl)ethynyl]phenyl]pyrido[3,4-d]pyrimidine-5-carboxylate]	0.6	28
CCOc1ncnc2ccc(-c3cccc(C#C[C@]4(O)CCN(C)C4=O)c3)nc12 [Example 24, (R)-3-((3-(4-Ethoxypyrido[3,2-d]pyrimidin-6-yl)phenyl)ethynyl)-3-hydroxy-1-methylpyrrolidin-2-one]	260	4030
CN1CC[C@@](O)(C#Cc2cccc(-c3cc(C(F)(F)F)c4ncnc(N)c4n3)c2)C1=O [Example 284, (R)-3-((3-(4-Amino-8-(trifluoromethyl)pyrido[3,2-d]pyrimidin-6-yl)phenyl)ethynyl)-3-hydroxy-1-methylpyrrolidin-2-one]	0.7	2.8
CN1CC[C@](O)(C#Cc2cccc(-c3ccc4ncnc(N5CCC5)c4n3)c2)C1=O [Example 231, (S)-3-((3-(4-(Azetidin-1-yl)pyrido[3,2-d]pyrimidin-6-yl)phenyl)ethynyl)-3-hydroxy-1-methylpyrrolidin-2-one]	340	> 5000
Cc1nc(N)c2nc(-c3cccc(C#C[C@@]4(O)C[C@H](C)N(C)C4=O)c3)ccc2n1 [Example 266, (3S,5S)-3-((3-(4-Amino-2-methylpyrido[3,2-d]pyrimidin-6-yl)phenyl)ethynyl)-3-hydroxy-1,5-dimethylpyrrolidin-2-one]	680	3700
CN1CC[C@@](O)(C#Cc2cccc(-c3cc(OC(F)F)c4ncnc(N)c4n3)c2)C1=O [Example 299, (R)-3-[2-[3-[4-Amino-8-(difluoromethoxy)pyrido[3,2-d]pyrimidin-6-yl]phenyl]ethynyl]-3-hydroxy-1-methyl-pyrrolidin-2-one]	1.7	12
[2H]c1nc(N)c2nc(-c3cccc(C#C[C@@]4(O)C(=O)N(C)[C@@H]5C[C@@H]54)c3)ccc2n1 [Example 276, (1R,4R,5S)-4-((3-(4-Aminopyrido[3,2-d]pyrimidin-6-yl-2-d)phenyl)ethynyl)-4-hydroxy-2-methyl-2-azabicyclo[3.1.0]hexan-3-one]	≤ 0.5	8.9
Cc1nc(N)c2nc(-c3cccc(C#C[C@@](C)(O)c4ccccn4)c3)ccc2n1 [Example 190, (R)-4-[3-(4-Amino-2-methyl-pyrido[3,2-d]pyrimidin-6-yl)phenyl]-2-(2-pyridyl)but-3-yn-2-ol]	1830	> 5000
Cc1ccc(-c2ncc3ccnc(N)c3n2)cc1C#C[C@]1(O)CCN(C)C1=O [Example 40, (R)-3-((5-(8-Aminopyrido[3,4-d]pyrimidin-2-yl)-2-methylphenyl)ethynyl)-3-hydroxy-1-methylpyrrolidin-2-one]	0.7	210
Cc1nccc2ccc(-c3cccc(C#C[C@]4(O)CCN(C)C4=O)c3)nc12 [Example 280, (R)-3-Hydroxy-1-methyl-3-((3-(8-methyl-1,7-naphthyridin-2-yl)phenyl)ethynyl)pyrrolidin-2-one]	45	720
Cc1ncnc2ccc(-c3cccc(C#C[C@]4(O)CCN(C)C4=O)c3)nc12 [Example 23, (R)-3-Hydroxy-1-methyl-3-((3-(4-methylpyrido[3,2-d]pyrimidin-6-yl)phenyl)ethynyl)pyrrolidin-2-one]	10	260
CN1CC[C@@](O)(C#Cc2cccc(-c3cc(OCCC(F)(F)F)c4ncnc(N)c4n3)c2)C1=O [Example 306, (R)-3-[2-[3-[4-Amino-8-(3,3,3-trifluoropropoxy)pyrido[3,2-d]pyrimidin-6-yl]phenyl]ethynyl]-3-hydroxy-1-methyl-pyrrolidin-2-one]	1.9	26
Cc1nc(N)c2nc(-c3cccc(C#C[C@]4(O)CCN(C)C4=O)c3)nc(C)c2n1 [Example 156, (R)-3-((3-(8-Amino-4,6-dimethylpyrimido[5,4-d]pyrimidin-2-yl)phenyl)ethynyl)-3-hydroxy-1-methylpyrrolidin-2-one]	1.1	16
Cc1cnc(N)c2nc(-c3cccc(C#C[C@]4(O)CCN(C)C4=O)c3)ncc12 [Example 39, (R)-3-((3-(8-Amino-5-methylpyrido[3,4-d]pyrimidin-2-yl)phenyl)ethynyl)-3-hydroxy-1-methylpyrrolidin-2-one]	≤ 0.5	9
Cc1nc(N)c2nc(-c3cccc(C#C[C@@](C)(O)c4ncccn4)c3)ccc2n1 [Example 197, (R)-4-[3-(4-Amino-2-methyl-pyrido[3,2-d]pyrimidin-6-yl)phenyl]-2-pyrimidin-2-yl-but-3-yn-2-ol]	6.3	380

Continued by falling IC50 [1], values first:

IC50 [1] [nM]	IC50 [2] [nM]	SMILES
830	> 5000	CN1CC[C@@](O)(C#Cc2cccc(-c3ccc4[nH]nc(N)c4c3)c2)C1=O [Example 174, (R)-3-[2-[3-(3-Amino-1H-indazol-5-yl)phenyl]ethynyl]-3-hydroxy-1-methyl-pyrrolidin-2-one]
18	1080	Cc1nc(N)c2nc(-c3cccc(C#C[C@@](C)(O)c4nnc(C)o4)c3)ccc2n1 [Example 213, (R)-4-(3-(4-Amino-2-methylpyrido[3,2-d]pyrimidin-6-yl)phenyl)-2-(5-methyl-1,3,4-oxadiazol-2-yl)but-3-yn-2-ol]
7	78	COc1ccc(C#C[C@]2(O)CCN(C)C2=O)cc1-c1ccc2nc(C)nc(N)c2n1 [Example 161, (R)-3-((3-(4-Amino-2-methylpyrido[3,2-d]pyrimidin-6-yl)-4-methoxyphenyl)ethynyl)-3-hydroxy-1-methylpyrrolidin-2-one]
4.7	320	Cc1nc(N)c2nc(-c3cc(C#C[C@]4(O)CCN(C)C4=O)ccc3C)ccc2n1 [Example 150, (R)-3-((3-(4-Amino-2-methylpyrido[3,2-d]pyrimidin-6-yl)-4-methylphenyl)ethynyl)-3-hydroxy-1-methylpyrrolidin-2-one]
4.1	45	[2H]c1nc(N)c2nc(-c3cc(C#C[C@]4(O)CCN(C)C4=O)ccc3OC(F)(F)F)ccc2n1 [Example 29, (R)-3-((3-(4-aminopyrido[3,2-d]pyrimidin-6-yl-2-d)-4-(trifluoromethoxy)phenyl)ethynyl)-3-hydroxy-1-methylpyrrolidin-2-one]
2.9	22	COc1ccc(C#C[C@]2(O)CCN(C)C2=O)cc1-c1ccc2ncnc(N)c2n1 [Example 139, (R)-3-((3-(4-Aminopyrido[3,2-d]pyrimidin-6-yl)-4-methoxyphenyl)ethynyl)-3-hydroxy-1-methylpyrrolidin-2-one]
1.8	71	Cc1cc2ncnc(N)c2nc1-c1cccc(C#C[C@]2(O)CCN(C)C2=O)c1 [Example 189, (R)-3-((3-(4-Amino-7-methylpyrido[3,2-d]pyrimidin-6-yl)phenyl)ethynyl)-3-hydroxy-1-methylpyrrolidin-2-one]
